Data published in US7144862B2, “Orally administered peptides to ameliorate atherosclerosis” (The Regents of the University of California, priority 2000, dated 2006).

What was measured:
[1] = test system: C57BL/6J mice fed an atherogenic diet; assay: Aortic lesion formation, daily intraperitoneal injection for 16 weeks, atherogenic diet; assay type: in vivo, mouse; details: 5F 20 μg or MoAI 50 μg daily i.p.
Method: The livers were removed and weighed.
Histological evaluations were performed according to the method of Paigen et al. (Paigen et al. (1990) Arteriosclerosis 10: 316–323) with some modifications. Briefly, hearts were fixed for at least one week in the phosphate-buffered formaldehyde solution. After removing the lower ⅔ of the hearts, the remaining tissue was frozen in OCT medium (Tissue-Tek, Miles Inc., Elkhart, Ind.) and sectioned in a cryostat at −20° C. Alternate 20 μm sections were saved on slides, and observed for the beginning of the aortic root. Sections were then collected for an additional 600 μm, or until the aortic cross-section was rounded and the valve cusps were no longer evident. Slides were stained with Oil Red O, and counterstained with hematoxylin. Stained lesion cross-sectional areas were measured in consecutive slides 80 μm apart by image analysis (SigmaScan Pro, SPSS Scientific, Chicago, Ill.), and the average lesion area was determined for each aortic sinus over the 400 μm length (five slides) providing the greatest mean lesion area.

[2] = Plasma cholesterol lipoprotein profiles (CLiP); assay type: in vivo, mouse; details: 16 weeks atherogenic diet, daily i.p.
Method: Plasma cholesterol lipoprotein profiles were measured using our recently-developed CLiP method (Garber et al. (2000) J. Lipid Res. 41:1020–1026). Briefly, 5 to 10 μl of plasma were analyzed using a single Superose 6 (Pharmacia, Piscataway N.J.) column. Immediately following the column, cholesterol reagent was introduced through a mixing tee, and the eluent:reagent mixture entered a post-column reaction coil. Cholesterol content of the eluent mixture was spectrophotometrically detected at 500 nm, and data points were collected into a computer. The resulting profiles were decomposed into component peaks and analyzed for relative area using PeakFit (SPSS Science, Chicago, Ill.); absolute cholesterol values for total cholesterol and each component peak were determined by comparison with a control sample of known values. In some cases fractions were collected to determine distribution of radioactivity. The CLiP method allowed analysis of individual mouse samples, avoiding the use of pooled samples.

human artery wall cells = assay: Lipoproteins from 5F-injected mice tested in human artery wall cell cocultures (lipid hydroperoxides, monocyte chemotactic activity); assay type: cell-based; details: 20 μg/mouse/day
Method: Cocultures of human artery wall cells, monocyte isolation, isolation of lipoproteins by ultracentrifugation from the plasma of normal human donors or from mouse plasma by FPLC, and determination of lipid hydroperoxides and monocyte chemotactic activity were performed according to standard methods. All human subject participation was with informed consent approved by the UCLA Human Subjects Protection Committee. The protocol for testing mouse lipoproteins in the coculture was also performed as follows: Briefly, LDL and HDL were isolated by FPLC from mouse plasma from mice fed the atherogenic diet and injected with vehicle (PBS), or with peptide 5F at 20 μg/mouse/day. The cocultures were treated with human LDL at 200 μg/ml LDL protein, or mouse LDL at 200 μg/ml or with 200 μg/ml human LDL+human HDL at 350 μg/ml of HDL protein or mouse HDL at 300 μg/ml or with mouse HDL alone at 300 μg/ml. […] The supernatants were collected and analyzed for Auerbach lipid hydroperoxide equivalents.

[3] = Circular dichroism, percent helicity; assay type: physicochemical
Method: Briefly, spectra were obtained using a cell with a 0.1 cm path length and measurements were taken every nm from 260 nm to 190 nm at 25° C. All the CD spectra were signal averaged by adding four scans, base line corrected and smoothed. Peptide solutions in PBS, pH 7.4, were used at a concentration of 11 μM. Peptide-DMPC complexes (1:20 mol:mol) were used to determine the effect of lipid binding on the helicity of these peptides. These complexes were prepared by adding the appropriate volume of peptide solution to DMPC multilamellar vesicles. DMPC multilamellar vesicles were prepared as follows: A known amount of lipid was dissolved in ethanol and the solvent was removed by evaporating slowly under a thin stream of nitrogen. Residual solvent was removed by storing the lipid film under vacuum overnight. An appropriate volume of PBS, pH 7.4 was added to the thin lipid film to give the required final concentration of DMPC.

[4] = DSC, chain melting transition of DMPC; assay type: physicochemical; details: DMPC/peptide 100:1 (mol/mol)
Method: (§1) A known amount of phospholipid was dissolved in chloroform. For one set of samples, peptide was dissolved in methanol and added to a solution of DiPoPE in chloroforn/methanol (2:1, v:v). For both, pure lipid samples and the organic solutions of lipid and peptide, solvent was removed under a slow stream of nitrogen. Residual solvent was removed under vacuum. […] For DMPC, four consecutive scans with a 60 minute equilibration time between scans were taken. DSC thermograms were analyzed using the software provided by MicroCal Inc., Amherst, Mass., and Origin, version 5.0.
The effect of these 18A analogues on the chain melting transition of multilamellar vesicles of DMPC was studied by DSC using peptide-lipid mixtures at 100:1 lipid/peptide molar ratio.

[5] = DSC, bilayer to hexagonal phase transition of DiPoPE; assay type: physicochemical; details: heating scan rate 37°/h
Method: as §1
In the current study we prepared the peptide-lipid mixtures in two ways. One was by adding the peptide in organic solvent to the lipid in organic solvent followed by depositing the material as a film and subsequently hydrating with buffer. In the other method, the peptide and lipid were mixed after each was hydrated separately. If the mixture comes to equilibrium prior to the DSC analysis, it should not matter how the peptide and lipid are originally mixed. However, membrane systems can equilibrate slowly, in which case there may be more peptide in the lipid when it was incorporated at high concentrations into the lipid film.

[6] = Right angle light scattering, dissolution of EPC MLVs; assay type: physicochemical; details: 105 μM EPC, equimolar peptide, 25° C., 30 min
Method: EPC MLVs were prepared by evaporating a solution of EPC (Avanti Polar, AL) under nitrogen and hydrating the lipid film with phosphate-buffered saline (pH 7.4). […] Turbidity clarification was monitored for 30 min.

[7] = mouse, in vivo, ip
Method: Mice were acquired at six weeks of age, and randomized into groups of 20, except that a negative control group of 10 received no treatments and was given standard rodent chow. At eight weeks of age, the treatment groups were placed on a modified Thomas-Hartroft atherogenic diet (#TD88051; Teklad, Madison, Wis.), and injections were begun. […] Animals were injected intraperitoneally daily for 16 weeks, including weekends and holidays.
At the end of the study (week 16), at the last bleeding, the heart and the liver were excised. […] The livers were removed and weighed.

Ac-DWLKAFYDKVFEKFKEFF-NH2 [Peptide 5F, Ac-D-W-L-K-A-F-Y-D-K-V-F-E-K-F-K-E-F-F-NH2]
mean lesion cross-sectional area compared with PBS-injected animals [1]: significantly lower mean lesion area
HDL as percent of total cholesterol [2]: (9.24 ± 1.18%*)
IDL + LDL as percent of total cholesterol [2]: (42.80 ± 2.51%)
VLDL as percent of total cholesterol [2]: (47.96 ± 3.26%)
HDL cholesterol ([2]; mean ± SEM): 17.92 ± 2.91 mg/dL
IDL + LDL cholesterol ([2]; mean ± SEM): 83.37 ± 8.15 mg/dL
TC (total cholesterol) ([2]; mean ± SEM): 201.63 ± 25.21 mg/dL
VLDL cholesterol ([2]; mean ± SEM): 100.34 ± 15.72 mg/dL
ability of HDL from injected mice to inhibit human LDL oxidation and LDL-induced monocyte chemotactic activity (human artery wall cells; mouse HDL 300 μg/ml with human LDL 200 μg/ml): as effective in inhibiting human LDL oxidation and preventing LDL-induced monocyte chemotactic activity in the cocultures as was normal human HDL
oxidation of, and monocyte chemotactic activity induced by, LDL from injected mice versus PBS (human artery wall cells; mouse LDL 200 μg/ml): less readily oxidized and induced less monocyte chemotactic activity
Percent Helicity PBS ([3]; 11 μM peptide in PBS): 55%
Percent Helicity DMPC ([3]; 11 μM peptide, Peptide: DMPC 1:20 (mol/mol)): 76%
TCM(° C.) ([4]; 1.5 mM DMPC, chain melting transition temperature): 23.2 °C
ΔHCM (kcals/mol) ([4]; enthalpy of the transition): 4.9 kcals/mol
ΔT1/2 (° C.) ([4]; width at half maximum of the transition): 0.5 °C
shift in TH of DiPoPE with mol fraction of peptide [5]: linear increase in TH
clarification of EPC MLVs [6]: clarified the EPC MLVs to a similar extents
toxicity [7]: No toxicity
